Here are results for 1 molecule from patent US20200278355A1, “CONJUGATED PROTEINS AND USES THEREOF” (THE SCRIPPS RESEARCH INSTITUTE, priority 2017, published 2020).

In test [1] the target is T1, SCP2 (Homo sapiens, UniProt P22307).
T1 construct: H460 cells or H460 cells expressing luciferase in a 10 cm plate were incubated with indicated compounds; endogenous in cells; host or cells: H460
The experiment in a line: ABPP-SILAC BPK-29yne competition in H460 cells: SCP2. The format is cell-based. As to conditions: 20 μM. The method, then: (§1) Isotopically labeled H460 cell lines were generated as described above. Light and heavy cells were treated with compounds (20 μM) or DMSO, respectively, for 3 h, followed by labeling with the BPK-29yne (5 μM) for 30 min. Cells were washed once ice-cold PBS and lysed in 1% Triton 100-X dissolved in PBS with protease inhibitors (Sigma) by sonication. Lysate was adjusted to 1.5 mg ml^−1 in 500 μL. Samples were conjugated by CuAAC to Biotin-PEG4-azide (5 μL of 10 mM stocks in DMSO, final concentration=100 μM). CuAAC “click” mix contained TCEP, TBTA ligand and CuSO4 as detailed for isoTOP-ABPP sample preparation. Samples were further processed as detailed in: isoTOP-ABPP streptavidin enrichment and isoTOP-ABPP trypsin TEV digestion with the following exception: after overnight incubation at 37° C. with trypsin, tryptic digests were separated from the beads with Micro Bio-Spin columns (Bio-Rad) by centrifugation (1,000×g, 1 min). Beads were rinsed once with water (200 μL) and combined with tryptic digests. […]
(§2) The MS2 spectra data were extracted and searched using RAW Convertor and ProLuCID algorithm as described in isoTOP-ABPP peptide and protein quantification. […] Ratios of heavy/light (DMSO/test compound) peaks were calculated using in-house CIMAGE software. […] The mean R values and standard deviation for multiple biological experiments were calculated from the average ratios from each replicate. […]

The target of test [2] is T2, FAM213A (Homo sapiens, UniProt Q9BRX8).
T2 construct: Isotopically labeled H460 cell lines were generated as described above; endogenous in cells; host or cells: H460 (SILAC-labelled)
Description: ABPP-SILAC BPK-29yne competition in H460 cells: FAM213A. The format is cell-based. The note with it: 20 μM. How it is done: as §1, §2

T2 sequence (Q9BRX8 whole entry): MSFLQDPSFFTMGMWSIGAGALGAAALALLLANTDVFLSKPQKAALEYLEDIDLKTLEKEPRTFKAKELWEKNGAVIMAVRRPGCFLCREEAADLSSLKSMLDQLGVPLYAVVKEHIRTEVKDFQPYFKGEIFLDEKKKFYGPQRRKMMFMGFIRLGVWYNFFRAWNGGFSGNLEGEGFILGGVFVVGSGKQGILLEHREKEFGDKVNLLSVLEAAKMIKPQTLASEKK
T1 sequence (P22307 whole entry): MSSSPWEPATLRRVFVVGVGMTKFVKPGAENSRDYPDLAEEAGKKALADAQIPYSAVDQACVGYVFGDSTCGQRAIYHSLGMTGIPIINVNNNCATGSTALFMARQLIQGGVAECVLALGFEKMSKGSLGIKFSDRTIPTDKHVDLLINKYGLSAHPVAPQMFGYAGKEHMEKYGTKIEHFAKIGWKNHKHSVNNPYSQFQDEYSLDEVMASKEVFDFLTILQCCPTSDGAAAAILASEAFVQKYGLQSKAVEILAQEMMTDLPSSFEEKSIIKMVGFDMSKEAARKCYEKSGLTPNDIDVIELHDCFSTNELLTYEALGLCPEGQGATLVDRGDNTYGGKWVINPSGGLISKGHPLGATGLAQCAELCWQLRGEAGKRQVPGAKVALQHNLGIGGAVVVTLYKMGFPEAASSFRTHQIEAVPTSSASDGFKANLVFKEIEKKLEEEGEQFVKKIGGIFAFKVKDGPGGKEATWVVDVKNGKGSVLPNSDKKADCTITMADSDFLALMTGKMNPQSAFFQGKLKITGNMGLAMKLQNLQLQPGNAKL

With `O=C(c1ccc(N2CCOCC2)cc1)N1CCCC(N(Cc2ccccc2)C(=O)CCl)CC1` (centres unmarked) [BPK-29, N-benzyl-2-chloro-N-(1-(4-morpholinobenzoyl)azepan-4-yl)acetamide], the “BPK-29-competed BPK-29yne analysis” value in test [1] and in test [2] was “Yes (Competed defined as showing R value ≥ 2.5 at 20 μM of test compound)” in each case.
